The text below walks through data of patent US9340590B2 (priority 2011, dated 2016).

Positions of bridges follow the written chain, without caps; N, C: chain ends. Residues, ends and D or L forms follow the SMILES beside them.

For the first test, the target named is hNav1.7 (Homo sapiens, UniProt Q15858). The experiment in a line: cell-based. Format: cell-based. The following applies: IonWorks Quattro, Use; read-out: IWQ Use Nav1.7. A general note: The patch-clamp technique gives a direct electrical read-out from membranes.
Sequence of hNav1.7 (Q15858 whole entry, looked up): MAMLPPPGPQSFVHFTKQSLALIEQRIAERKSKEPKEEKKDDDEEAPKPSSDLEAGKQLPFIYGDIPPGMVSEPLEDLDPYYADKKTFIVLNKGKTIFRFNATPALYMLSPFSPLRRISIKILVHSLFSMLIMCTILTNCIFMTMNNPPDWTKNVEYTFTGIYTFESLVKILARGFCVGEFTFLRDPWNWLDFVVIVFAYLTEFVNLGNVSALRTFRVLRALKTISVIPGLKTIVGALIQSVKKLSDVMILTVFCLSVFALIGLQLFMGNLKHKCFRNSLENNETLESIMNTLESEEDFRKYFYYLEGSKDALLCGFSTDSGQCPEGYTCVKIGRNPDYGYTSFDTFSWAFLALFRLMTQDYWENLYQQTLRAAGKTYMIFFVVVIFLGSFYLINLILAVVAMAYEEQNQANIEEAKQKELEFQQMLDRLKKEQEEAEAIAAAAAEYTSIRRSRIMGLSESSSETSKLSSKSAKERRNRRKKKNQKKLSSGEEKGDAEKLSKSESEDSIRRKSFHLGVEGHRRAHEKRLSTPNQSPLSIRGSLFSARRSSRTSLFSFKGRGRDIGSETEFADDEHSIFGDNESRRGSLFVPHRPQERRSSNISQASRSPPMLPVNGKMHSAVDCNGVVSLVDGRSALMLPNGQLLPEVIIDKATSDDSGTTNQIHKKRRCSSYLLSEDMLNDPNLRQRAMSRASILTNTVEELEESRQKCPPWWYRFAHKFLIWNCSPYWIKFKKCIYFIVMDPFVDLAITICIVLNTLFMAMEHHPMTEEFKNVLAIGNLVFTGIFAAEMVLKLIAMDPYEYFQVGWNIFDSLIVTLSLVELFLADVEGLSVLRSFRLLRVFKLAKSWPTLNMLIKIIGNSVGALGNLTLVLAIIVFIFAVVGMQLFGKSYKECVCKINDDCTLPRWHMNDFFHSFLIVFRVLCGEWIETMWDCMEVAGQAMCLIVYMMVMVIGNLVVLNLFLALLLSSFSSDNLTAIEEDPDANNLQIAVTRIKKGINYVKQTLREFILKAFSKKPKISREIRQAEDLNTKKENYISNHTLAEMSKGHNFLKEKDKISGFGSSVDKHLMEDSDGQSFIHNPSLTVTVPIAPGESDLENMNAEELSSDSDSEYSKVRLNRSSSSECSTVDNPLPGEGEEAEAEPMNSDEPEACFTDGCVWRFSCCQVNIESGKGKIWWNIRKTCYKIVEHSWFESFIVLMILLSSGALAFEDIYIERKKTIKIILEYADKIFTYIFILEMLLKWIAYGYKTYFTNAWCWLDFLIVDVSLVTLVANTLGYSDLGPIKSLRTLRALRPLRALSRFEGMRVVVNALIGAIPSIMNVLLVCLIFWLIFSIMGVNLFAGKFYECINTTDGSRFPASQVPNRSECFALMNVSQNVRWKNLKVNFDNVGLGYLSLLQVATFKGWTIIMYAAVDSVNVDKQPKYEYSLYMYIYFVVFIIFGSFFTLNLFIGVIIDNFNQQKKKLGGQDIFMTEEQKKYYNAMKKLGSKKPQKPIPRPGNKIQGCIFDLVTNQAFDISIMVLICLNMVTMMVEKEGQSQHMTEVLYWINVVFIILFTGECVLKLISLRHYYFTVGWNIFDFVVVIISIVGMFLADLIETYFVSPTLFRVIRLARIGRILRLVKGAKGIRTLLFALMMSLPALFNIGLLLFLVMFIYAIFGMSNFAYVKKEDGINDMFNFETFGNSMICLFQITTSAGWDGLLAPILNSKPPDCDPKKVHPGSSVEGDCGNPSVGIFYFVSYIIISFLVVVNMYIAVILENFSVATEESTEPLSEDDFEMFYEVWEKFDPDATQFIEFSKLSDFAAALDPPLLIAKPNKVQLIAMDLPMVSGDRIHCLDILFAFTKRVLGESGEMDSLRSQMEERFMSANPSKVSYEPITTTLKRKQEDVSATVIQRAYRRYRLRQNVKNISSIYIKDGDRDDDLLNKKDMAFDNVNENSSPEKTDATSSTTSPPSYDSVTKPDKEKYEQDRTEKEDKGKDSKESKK
Consider `CSCC[C@@H]1NC(=O)[C@H](Cc2ccccc2)NC(=O)CNC(=O)[C@H](CC(C)C)NC(=O)[C@@H](NC(=O)[C@@H](N)CC(=O)O)CSSC[C@@H]2NC(=O)[C@@H]3CSSC[C@@H](C(=O)N[C@@H](CCCCN)C(=O)N[C@@H](Cc4ccc(O)cc4)C(=O)N[C@H](C(=O)N[C@@H](Cc4ccccc4)C(N)=O)C(C)C)NC(=O)[C@H](Cc4c[nH]c5ccccc45)NC(=O)[C@H](CCCCN)NC(=O)[C@H](Cc4c[nH]cn4)NC(=O)[C@H]([C@@H](C)O)NC(=O)[C@H](CCCNC(=N)N)NC(=O)[C@H](CO)NC(=O)[C@H](CSSC[C@H](NC(=O)[C@H](CCCCN)NC(=O)[C@H](CCCNC(=N)N)NC1=O)C(=O)N[C@@H](C)C(=O)N1CCC[C@H]1C(=O)N[C@@H](CC(=O)O)C(=O)N[C@@H](CC(N)=O)C(=O)N[C@@H](CC(=O)O)C(=O)N[C@@H](CCCCN)C(=O)N3)NC(=O)[C@H](C(C)C)NC(=O)[C@H](CC(C)C)NC(=O)[C@H](CC(N)=O)NC(=O)[C@@H]1CCCN1C(=O)[C@H](CCCNC(=N)N)NC2=O` [compound 45] (H-DCLGFMRKCAPDNDKCCRPNLVCSRTHKWCKYVF-NH2; disulfide 2-17, 9-23, 16-30), for which the IC50 came out at 210 nM.

For the molecule `CC[C@H](C)[C@@H]1NC(=O)[C@@H]2CSSC[C@@H]3NC(=O)[C@H](C(C)C)NC(=O)[C@H](CC(C)C)NC(=O)[C@H](CC(N)=O)NC(=O)[C@@H]4CCCN4C(=O)[C@H](CCCNC(=N)N)NC(=O)[C@H](CSSC[C@H](NC(=O)[C@@H](N)CC(=O)O)C(=O)N[C@@H](CC(C)C)C(=O)NCC(=O)N[C@@H](Cc4ccccc4)C(=O)N[C@@H](CCSC)C(=O)N[C@@H](CCCNC(=N)N)C(=O)N[C@@H](CCCCN)C(=O)N2)NC(=O)[C@H](CSSC[C@@H](C(=O)N[C@@H](CCCCN)C(=O)N[C@@H](Cc2ccc(O)cc2)C(=O)N[C@H](C(=O)N[C@@H](Cc2ccccc2)C(N)=O)C(C)C)NC(=O)[C@H](Cc2c[nH]c4ccccc24)NC(=O)[C@H](CCCCN)NC(=O)[C@H](Cc2c[nH]cn2)NC(=O)[C@H]([C@@H](C)O)NC(=O)[C@H](CCCNC(=N)N)NC(=O)[C@H](CO)NC3=O)NC(=O)[C@H](CCCCN)NC(=O)[C@H](CC(=O)O)NC(=O)[C@H](CCCCN)NC(=O)[C@H](CC(=O)O)NC(=O)[C@@H]2CCCN2C1=O` [compound 48] (H-DCLGFMRKCIPDKDKCCRPNLVCSRTHKWCKYVF-NH2; disulfide 2-17, 9-23, 16-30), the IC50 turned out to be 210 nM.

Consider `CC[C@H](C)[C@@H]1NC(=O)[C@@H]2CSSC[C@@H]3NC(=O)[C@H](C(C)C)NC(=O)[C@H](CC(C)C)NC(=O)[C@H](CC(N)=O)NC(=O)[C@@H]4CCCN4C(=O)[C@H](CCCNC(=N)N)NC(=O)[C@H](CSSC[C@H](NC(=O)[C@@H](N)CC(=O)O)C(=O)N[C@@H](CC(C)C)C(=O)NCC(=O)N[C@@H](Cc4ccccc4)C(=O)N[C@@H](CCSC)C(=O)N[C@@H](CCCNC(=N)N)C(=O)N[C@@H](CCCCN)C(=O)N2)NC(=O)[C@H](CSSC[C@@H](C(=O)N[C@@H](CCCCN)C(=O)N[C@@H](Cc2ccc(O)cc2)C(=O)N[C@H](C(=O)N[C@@H](Cc2ccccc2)C(N)=O)C(C)C)NC(=O)[C@H](Cc2c[nH]c4ccccc24)NC(=O)[C@H](CCCCN)NC(=O)[C@H](Cc2c[nH]cn2)NC(=O)[C@H]([C@@H](C)O)NC(=O)[C@H](CCCCN)NC(=O)[C@H](CO)NC3=O)NC(=O)[C@H](CCCCN)NC(=O)[C@H](CC(=O)O)NC(=O)[C@H](CC(N)=O)NC(=O)[C@H](CC(=O)O)NC(=O)[C@@H]2CCCN2C1=O` [compound 53] (H-DCLGFMRKCIPDNDKCCRPNLVCSKTHKWCKYVF-NH2; disulfide 2-17, 9-23, 16-30), for which the IC50 was 380 nM.

Still in this test, the particulars now being: read-out: IWQ Use Nav1.7.
In the case of `CC[C@H](C)[C@@H]1NC(=O)[C@@H]2CSSC[C@@H]3NC(=O)[C@H](C(C)C)NC(=O)[C@H](CC(C)C)NC(=O)[C@H](CC(N)=O)NC(=O)[C@@H]4CCCN4C(=O)[C@H](CCCNC(=N)N)NC(=O)[C@H](CSSC[C@H](NC(=O)[C@@H](N)CC(=O)O)C(=O)N[C@@H](CC(C)C)C(=O)NCC(=O)N[C@@H](Cc4ccccc4)C(=O)N[C@@H](CCSC)C(=O)N[C@@H](CCCNC(=N)N)C(=O)N[C@@H](CCCCN)C(=O)N2)NC(=O)[C@H](CSSC[C@@H](C(=O)N[C@@H](CCCCN)C(=O)N[C@@H](C)C(=O)N[C@H](C(=O)N[C@@H](Cc2ccccc2)C(N)=O)C(C)C)NC(=O)[C@H](Cc2c[nH]c4ccccc24)NC(=O)[C@H](CCCCN)NC(=O)[C@H](Cc2c[nH]cn2)NC(=O)[C@H]([C@@H](C)O)NC(=O)[C@H](CCCNC(=N)N)NC(=O)[C@H](CO)NC3=O)NC(=O)[C@H](CCCCN)NC(=O)[C@H](CC(=O)O)NC(=O)[C@H](CC(N)=O)NC(=O)[C@H](CC(=O)O)NC(=O)[C@@H]2CCCN2C1=O` [compound 14] (H-DCLGFMRKCIPDNDKCCRPNLVCSRTHKWCKAVF-NH2; disulfide 2-17, 9-23, 16-30), the IC50 amounted to 800 nM.

For the molecule `CC[C@H](C)[C@@H]1NC(=O)[C@@H]2CSSC[C@@H]3NC(=O)[C@H](C(C)C)NC(=O)[C@H](CC(C)C)NC(=O)[C@H](CC(N)=O)NC(=O)[C@@H]4CCCN4C(=O)[C@H](CCCNC(=N)N)NC(=O)[C@H](CSSC[C@H](NC(=O)[C@@H](N)CC(=O)O)C(=O)N[C@@H](CC(C)C)C(=O)NCC(=O)N[C@@H](Cc4ccccc4)C(=O)N[C@@H](CCSC)C(=O)N[C@@H](CCCNC(=N)N)C(=O)N[C@@H](CCCCN)C(=O)N2)NC(=O)[C@H](CSSC[C@@H](C(=O)N[C@@H](CCCCN)C(=O)N[C@@H](Cc2ccc(O)cc2)C(=O)N[C@H](C(=O)N[C@@H](Cc2ccccc2)C(N)=O)C(C)C)NC(=O)[C@H](Cc2c[nH]c4ccccc24)NC(=O)[C@H](CCCCN)NC(=O)[C@H](Cc2c[nH]cn2)NC(=O)[C@H]([C@@H](C)O)NC(=O)[C@H](CCCNC(=N)N)NC(=O)[C@H](CO)NC3=O)NC(=O)[C@H](CCCCN)NC(=O)[C@H](CC(=O)O)NC(=O)[C@H](CC(N)=O)NC(=O)[C@H](CCCCN)NC(=O)[C@@H]2CCCN2C1=O` [compound 42] (H-DCLGFMRKCIPKNDKCCRPNLVCSRTHKWCKYVF-NH2; disulfide 2-17, 9-23, 16-30), the IC50 is 120 nM.

For the molecule `CC[C@H](C)[C@@H]1NC(=O)[C@@H]2CSSC[C@@H]3NC(=O)[C@H](C(C)C)NC(=O)[C@H](CC(C)C)NC(=O)[C@H](CC(N)=O)NC(=O)[C@H](CCCCN)NC(=O)[C@H](CCCNC(=N)N)NC(=O)[C@H](CSSC[C@H](NC(=O)[C@@H](N)CC(=O)O)C(=O)N[C@@H](CC(C)C)C(=O)NCC(=O)N[C@@H](Cc4ccccc4)C(=O)N[C@@H](CCSC)C(=O)N[C@@H](CCCNC(=N)N)C(=O)N[C@@H](CCCCN)C(=O)N2)NC(=O)[C@H](CSSC[C@@H](C(=O)N[C@@H](CCCCN)C(=O)N[C@@H](Cc2ccc(O)cc2)C(=O)N[C@H](C(=O)N[C@@H](Cc2ccccc2)C(N)=O)C(C)C)NC(=O)[C@H](Cc2c[nH]c4ccccc24)NC(=O)[C@H](CCCCN)NC(=O)[C@H](Cc2c[nH]cn2)NC(=O)[C@H]([C@@H](C)O)NC(=O)[C@H](CCCNC(=N)N)NC(=O)[C@H](CO)NC3=O)NC(=O)[C@H](CCCCN)NC(=O)[C@H](CC(=O)O)NC(=O)[C@H](CC(N)=O)NC(=O)[C@H](CC(=O)O)NC(=O)[C@@H]2CCCN2C1=O` [compound 50] (H-DCLGFMRKCIPDNDKCCRKNLVCSRTHKWCKYVF-NH2; disulfide 2-17, 9-23, 16-30), the IC50 worked out at 120 nM.
